Results as given in patent US9181253B2 (The United States of America, as represented by the …, priority 2008, dated 2015).
Read-outs that look alike come from different tables or passages of the source. Marks after values point to notes of the source that are not given here.

What was measured:
hA2AAR [1] = target: T1, hA2AAR (Homo sapiens (Human), UniProt P29274); details: values from literature references; read-out: Affinity Ki, nM A2A; cited from earlier work
MES seizures in mice = test: Maximal electroshock (MES) seizure test; assay type: in vivo; details: i.p.
Experimental: The electrical tests used were the maximal electroshock (MES) seizure test, the 6 Hz minimal clonic seizure test, and the corneal kindled mouse test. The chemical test was the s.c. metrazol seizure tests. Time of peak effect (TPE) is deduced from data generated in initial qualitative test procedures. Five groups of 4 animals each are administered the test compound, and each group is tested at one of five different time intervals: ¼, ½, 1, 2 and 4 h. The time point at which the compound produces the most activity/toxicity was chosen as TPE.
(§1) For the MES and 6 Hz tests, a drop of anesthetic/electrolyte solution (0.5% tetracaine hydrochloride in 0.9% saline) was applied to the eyes of each animal prior to placement of the corneal electrodes. The electrical stimulus in the MES test was 50 mA, 60 Hz, for mice. Abolition of the hindleg tonic extensor component of the seizure was used as the endpoint.

hA3AR = hA3AR (Homo sapiens (Human), UniProt P0DMS8); details: values from literature references; read-out: Affinity Ki, nM A3; cited from earlier work
hA3AR, sequence (P0DMS8 whole entry): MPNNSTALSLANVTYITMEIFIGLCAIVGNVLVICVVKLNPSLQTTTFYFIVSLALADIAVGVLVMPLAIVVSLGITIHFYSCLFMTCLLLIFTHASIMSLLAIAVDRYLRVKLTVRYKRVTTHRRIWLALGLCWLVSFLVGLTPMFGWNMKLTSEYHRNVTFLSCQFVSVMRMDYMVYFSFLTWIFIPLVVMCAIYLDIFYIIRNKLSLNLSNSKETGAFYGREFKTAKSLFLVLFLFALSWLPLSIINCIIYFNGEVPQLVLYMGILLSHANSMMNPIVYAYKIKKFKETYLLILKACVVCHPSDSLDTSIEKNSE

[2] = tested on: seizures induced by 6 Hz corneal stimulation in mice; test: 6 Hz minimal clonic seizure test; assay type: in vivo
Experimental: as §1
The ability of the test substance to prevent seizures induced by 6 Hz corneal stimulation (32 mA, 3 sec duration) in mice was evaluated at a convulsive current that evokes a seizure in 97% of the population tested (CC97). Six Hz seizures are characterized by a minimal clonic phase that is followed by stereotyped, automatistic behaviors described originally as being similar to the aura of human patients with partial seizures. Toman, J. E. et al., Tex. Rep.
Animals not displaying this behavior were considered protected.

[3] = tested on: s.c. metrazol seizures in mice; test: s.c. metrazol (scMET) seizure test; assay type: in vivo; details: i.p.
Description: In vivo anticonvulsant activity was established by both electrical and chemoconvulsant seizure tests which have been described previously. White, H. S., et al., Ital. J. Neurol. […] White, H. S. et al., Antiepileptic Drugs ([…].; Meldrum, B. S. ed), 1995, pp 99-110, Raven Press, New York.; and Smith, M., et al., Neurotherapeutics 2007, 4, 12-17. The electrical tests used were the maximal electroshock (MES) seizure test, the 6 Hz minimal clonic seizure test, and the corneal kindled mouse test. The chemical test was the s.c. metrazol seizure tests. Time of peak effect (TPE) is deduced from data generated in initial qualitative test procedures. […] The time point at which the compound produces the most activity/toxicity was chosen as TPE.

mice = test: Minimal behavioral toxicity test, rotorod procedure; details: i.p.
hA1AR [4] = target: T2, hA1AR (Homo sapiens (Human), UniProt P30542); details: values from literature references; read-out: Affinity Ki, nM A1; cited from earlier work
T2 sequence (P30542 whole entry): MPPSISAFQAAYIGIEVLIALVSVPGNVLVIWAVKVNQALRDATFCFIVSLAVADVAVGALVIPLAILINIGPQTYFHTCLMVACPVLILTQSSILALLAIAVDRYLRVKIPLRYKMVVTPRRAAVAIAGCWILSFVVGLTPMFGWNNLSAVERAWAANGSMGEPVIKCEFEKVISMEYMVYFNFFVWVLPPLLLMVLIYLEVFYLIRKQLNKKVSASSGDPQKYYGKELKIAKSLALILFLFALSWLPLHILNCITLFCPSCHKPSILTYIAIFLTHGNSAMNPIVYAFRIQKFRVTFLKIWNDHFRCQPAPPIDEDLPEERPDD

hA1AR [5] = target: T2, hA1AR; test: A1AR functional assay, inhibition of forskolin-stimulated cyclic AMP production in AR-transfected CHO cells; assay type: cell-based; details: FIG. 12, compared to full agonist NECA
in vivo = details: mouse, ip
hA1AR [6] = target: T2, hA1AR; test: Radioligand membrane binding at hA1AR (Example 6)
Experimental: (§2) In addition, 800 μg/mL Geneticin and 500 μg/mL hygromycin were added to the A2A media and to the A1 and A3 media, respectively. […] The concentration of protein was determined using a BCA Protein Assay Kit from Pierce Biotechnology (Rockford, Ill.).
(§3) Radioligand binding assays at A1, A2A, and A3ARs were performed according to the procedures described previously.
(§4) All of the filters were washed 3 times with Tris-HCl, pH 7.5. […] Filters for A3AR binding were counted using a PerkinElmer Cobra II γ-counter.
(§5) Binding and functional parameters were calculated using Prism 5.0 software (GraphPAD, San Diego, Calif., USA). IC50 values obtained from competition curves were converted to Ki values using the Cheng-Prusoff equation. Data were expressed as mean±standard error.

corneal kindled mice = test: Corneal-kindled mouse model of partial seizures; assay type: in vivo; details: qualitative test, 3 mg/kg, 1 hour post injection, n=4
Description: Mice were kindled according to the methods described by […] and […]; […] Louis, Mo.) was applied to the cornea to ensure local anesthesia and good electrical conductivity. Stimulations were at least four hours apart. […] See Racine, R., Electroencephalogr. Clin. Neurophysiol. 1972, pp. 281-294. At the completion of the kindling acquisition, mice were permitted at least a 3-day stimulation-free period prior to any drug testing. Mice were stimulated once the day before drug testing to ensure they had achieved and maintained a kindled state. On the day of the drug study, corneal kindled mice (n=4, or 8) received a single i.p. dose of test compound. Mice were challenged with the corneal kindling stimulus of 3 mA for 3 seconds at TPE after test compound administration. Mice were scored as protected (seizure score of ≦3) or not protected, (seizure score ≧4) based on the Racine scoring.

hA2AAR [7] = target: T1, hA2AAR; test: Radioligand membrane binding at hA2AAR (Example 6); details: HEK293 cells expressing hA2AAR; [3H]CGS21680; n = 3-5; read-out: Affinity Ki, nM A2A
Experimental: as §2, §3, §4, §5

human A3 receptor = human A3 receptor (Homo sapiens (Human), UniProt P0DMS8); test: Binding assay at the human A3 receptor (Example 2); details: CHO cells expressing human A3AR; radioligand [125I]I-AB-MECA; n = 3-5; read-out: Affinity (Ki, nM) A3
human A3 receptor, sequence (P0DMS8 whole entry): as the sequence (P0DMS8 whole entry) above

human A3AR [8] = target: T3, human A3AR (Homo sapiens (Human), UniProt P0DMS8); test: [35S]GTPγS binding assay, membranes of CHO cells expressing human A3AR; assay type: biochemical
T3 sequence (P0DMS8 whole entry): as above

human A3AR [9] = target: T3, human A3AR; test: Cyclic AMP accumulation / adenylate cyclase assay, CHO cells expressing hA3AR; assay type: cell-based

T1 sequence (P29274 whole entry): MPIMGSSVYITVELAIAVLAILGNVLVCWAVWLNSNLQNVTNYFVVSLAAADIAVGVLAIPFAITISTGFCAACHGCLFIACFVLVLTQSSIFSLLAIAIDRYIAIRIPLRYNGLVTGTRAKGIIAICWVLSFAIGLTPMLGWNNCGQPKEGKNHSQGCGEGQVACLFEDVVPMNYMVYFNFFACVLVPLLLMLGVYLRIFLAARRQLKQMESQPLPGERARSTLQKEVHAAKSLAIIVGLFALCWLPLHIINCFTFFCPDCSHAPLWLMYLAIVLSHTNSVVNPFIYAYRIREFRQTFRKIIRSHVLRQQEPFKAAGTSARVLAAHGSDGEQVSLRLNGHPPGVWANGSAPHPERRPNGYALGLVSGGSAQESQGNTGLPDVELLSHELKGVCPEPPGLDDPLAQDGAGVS

## NCCNC(=O)Cc1ccc(NC(=O)Cc2ccc(Nc3ncnc4c3ncn4[C@@H]3O[C@H](CO)[C@@H](O)[C@H]3O)cc2)cc1 [Compound 237]
hA2AAR [1]
  Ki: 370 ± 100 nM
MES seizures in mice; 2 mg/kg
  MES model, number of animals protected from convulsions: 4 out of 8
hA3AR
  Ki: 12.4 ± 4.1 nM
[2]; mice, i.p., measured at 1 h post injection
  6 Hz model ED50: 0.03^c mg/kg
[3]; 1 mg/kg
  scMET model, number of animals protected from convulsions: 5 out of 8
mice; measured at 4 h post injection
  Behavioral toxicity TD50: 0.14^d mg/kg
hA1AR [4]
  Ki: 10.4 ± 3.8 nM

## O[C@@H]1[C@H](O)[C@@H]2C[C@@H]2[C@H]1n1cnc2c(NC(C3CC3)C3CC3)nc(Cl)nc21 [Compound 121, (1R,2R,3S,4R,5S)-4-(2-Chloro-6-(dicyclopropylmethylamino)-9H-purin-9-yl)bicyclo[3.1.0]hexane-2,3-diol]
hA1AR [5]
  agonist character at A1 AR, concentration-response curve of inhibition of cyclic AMP production: full agonist
In vivo
  TD50: > 10 mg/kg
hA1AR [6]
  times less potent at the A1AR in in vitro binding compared to 235b: ~40 times
hA1AR [6]; CHO cells expressing hA1AR, [3H]R-PIA, n = 3-5, read-out: Affinity Ki, nM A1
  Ki: 47.9 ± 10.5 nM
Corneal kindled mice
  corneal kindled mouse model, animals protected: all animals (n=4) were protected
MES seizures in mice; 3 mg/kg
  MES model, number of animals protected from convulsions: 1 out of 4
hA2AAR [7]
  Ki: 3950 ± 410 nM
[2]; Mus musculus, ip, mice, i.p., measured at 1 h post injection, read-out: 6 Hz model ED50
  ED50: 2.74 mg/kg
[2]; mouse, in vivo
  ED50 in antiseizure models, times less potent compared to 235b: about 20 times
[3]; 3 mg/kg
  scMET model, number of animals protected from convulsions: No protection
mice
  Behavioral toxicity TD50: >10 mg/kg

## O[C@@H]1[C@H](O)[C@@H]2C[C@@H]2[C@H]1n1cnc2c(NCc3cccc(I)c3)nc(Cl)nc21 [Compound 7b, (1′R,2′R,3′S,4′R,5′S)-4′-[2-Chloro-6-(3-iodobenzylamino)purine]-2′,3′-O-dihydroxybicyclo-[3.1.0]hexane]
Human A3 receptor
  Ki: 1.44 ± 0.6 nM
Human A3AR [8]; read-out: IC50, inhibition of [35S]GTPγS binding stimulated by NECA, stimulation by 1 μM NECA
  IC50: 29.8 nM
Human A3AR [8]; stimulation measured by [35S]GTPγS binding assay
  % Efficacy A3: 1.0 ± 3.2%
Human A3AR [9]; partial agonism, read-out: EC50 at A3AR, cAMP assay
  EC50: 12 ± 1 nM
Human A3AR [9]; right shifts of response curves in the inhibition of adenylate cyclase by NECA, read-out: KB value, Schild analysis
  Kb: 8.9 nM
